The record followed here is paper PMC7274154, “Identification and Characterization of GPCRs for Pyrokinin and CAPA Peptides in the Brown Marmorated Stink Bug, Halyomorpha halys (Hemiptera: Pentatomidae)” (Frontiers in Physiology, 2020).

What all share (format): cell-based, Halyomorpha halys
Assay [1] concerns HalhaCAPA-R. The assay can be described thus: Concentration-response, calcium mobilization (FLIPR Calcium 6) in Sf9 cells expressing HalhaCAPA-R. As to conditions: for EC50: HalhaCAPA-R in Sf9 cells, intracellular calcium, FLIPR Calcium 6 fluorescence, at least three independent experiments, read-out: Half-maximum effective concentration (EC50); for Response in functional assay (words): HalhaCAPA-R, Sf9 cells, concentration-response. On the procedure: (§1) Five micrograms of each purified pIB/HalhaPK-R (or CAPA-R) plasmid and 15 μL of Cellfectin II reagent (Thermo Fisher Scientific) were diluted into 500 μL of serum free Insectagro Sf9 medium (Corning, Corning, NY, United States) and allowed to incubate for 10 min at room temperature, after which they were mixed together and allowed to incubate for an additional 15–20 min. Each pIB/HalhaPK-R (or CAPA-R) Cellfectin mixture was then added to T-25 cell culture flasks containing Sf9 cells at 50% confluency and incubated overnight at 28°C. The following morning the media was removed from each flask and replaced with media containing 20 μg/mL blasticidin (Corning). Each transfected cell line was cultured in the presence of 20 μg/mL blasticidin for ∼3 weeks until a blasticidin-resistant cell line was established, after which the blasticidin concentration was reduced to 10 μg/mL and the cell lines were frozen prior to testing in functional assays.
(§2) Peptides encoded by H. halys pyrokinin and capa genes used in this study have been recently identified ([Ahn and Choi, 2018]). Four peptides (>95% purity): PK2 (FYAPFSPRLa), CAPA-PVK1 ([…]a), CAPA-PVK2 (EQLIPFPRVa), and CAPA-DH (= PK1-like, […]a) were synthesized to contain an amide group on their C-termini (Peptide 2.0 Inc., Chantilly, VA, United States). Peptides were solubilized in water, aliquoted into 2–20 nM working stocks, dried using a DNA120 SpeedVac Concentrator (Thermo Scientific), and frozen at –20°C until use in binding assays.
(§3) For each cell line expressing a specific H. halys PRXamide receptor, cells were thawed and cultured for at least three passages in a suspension culture containing blasticidin prior to functional assays. The transfected cell lines were grown as 20 mL suspension cultures in 50 mL-Erlenmeyer flasks with a screw cap, and shaken at 145 rpm at 28°C. For functional assays, cells were taken from a suspension culture in the exponential growth phase, and ∼50,000 cells were plated into each well of a tissue culture-treated, black-walled, 96-well plate (Corning). The plated cells were then incubated at 28°C for 48 h, after which the media was removed from the plates and the wells were rinsed with serum-free media, then loaded with 95 μL of 1X FLIPR Calcium 6 assay reagent (Molecular Devices, Sunnyvale, CA, United States). Plates were incubated at room temperature for 60 min then transferred to a FlexStation 3 Multi-Mode Microplate Reader (Molecular Devices) to measure cell fluorescence intensity from intracellular calcium influx after peptide-induced receptor activation. Wells of cells were then treated with 5 μL of water or 20X concentrations of each peptide using the automated injection system of the FlexStation plate reader. In all experiments, fluorescence was measured every 5 s for 30 s prior to treatment and for 2 min after exposure. In all cases, the maximum response obtained occurred ∼20 s after exposure to ligand. The mean response of four wells receiving the same treatment was calculated and expressed as a change in fluorescence from baseline (prior to treatment) to maximum response. For initial screening, each cell line was exposed to a single concentration of 500 nM of each peptide or control. Compounds that elicited responses were tested further in concentration-response experiments. Concentration-response curves and EC50 values were generated using the variable slope, four parameter non-linear regression function of GraphPad Prism data analysis (GraphPad Software, Inc., San Diego, CA, United States). Each cell line was tested for its response to peptides in at least three independent experiments.
On the technique in general: Calcium assays in cells follow changes in intracellular calcium, usually with a dye or a luminescent sensor.

Assay [2] relates to HalhaPK-R1a. The assay can be described thus: Concentration-response, calcium mobilization (FLIPR Calcium 6) in Sf9 cells expressing HalhaPK-R1a. The settings on record: for EC50: HalhaPK-R1a in Sf9 cells, intracellular calcium, FLIPR Calcium 6 fluorescence, at least three independent experiments, read-out: Half-maximum effective concentration (EC50). The method, then:
as §1, §2
as §3, with “Concentration-response curves and EC50 values were generated using the variable slope, four parameter non-linear regression function of GraphPad Prism data analysis (GraphPad Software, Inc., San Diego, CA, United States). Each cell line was tested for its response to peptides in at least three independent experiments.” left out

Assay [3] relates to HalhaPK-R3a. The assay can be described thus: Concentration-response, calcium mobilization (FLIPR Calcium 6) in Sf9 cells expressing HalhaPK-R3a. The settings on record: for EC50: HalhaPK-R3a in Sf9 cells, intracellular calcium, FLIPR Calcium 6 fluorescence, at least three independent experiments, read-out: Half-maximum effective concentration (EC50); for Response in functional assay (words): HalhaPK-R3a, Sf9 cells, concentration-response. On the procedure:
as §1, §2, §3

Assay [4] has as its system HalhaPK-R3b. The assay can be described thus: Concentration-response, calcium mobilization (FLIPR Calcium 6) in Sf9 cells expressing HalhaPK-R3b. As to conditions: for EC50: HalhaPK-R3b in Sf9 cells, intracellular calcium, FLIPR Calcium 6 fluorescence, at least three independent experiments, read-out: Half-maximum effective concentration (EC50); for Response in functional assay (words): HalhaPK-R3b, Sf9 cells, concentration-response. The method, then: as §1, §2, §3

The subject of assay [5] is HalhaPK-R1b. The assay can be described thus: Concentration-response, calcium mobilization (FLIPR Calcium 6) in Sf9 cells expressing HalhaPK-R1b. As to conditions: for EC50: HalhaPK-R1b in Sf9 cells, intracellular calcium, FLIPR Calcium 6 fluorescence, at least three independent experiments, read-out: Half-maximum effective concentration (EC50). On the procedure: as §1, §2
as §3, with “Concentration-response curves and EC50 values were generated using the variable slope, four parameter non-linear regression function of GraphPad Prism data analysis (GraphPad Software, Inc., San Diego, CA, United States). Each cell line was tested for its response to peptides in at least three independent experiments.” left out

For assay [6], the system named is HalhaPK-R2. The assay can be described thus: Concentration-response, calcium mobilization (FLIPR Calcium 6) in Sf9 cells expressing HalhaPK-R2. The settings on record: for EC50: HalhaPK-R2 in Sf9 cells, intracellular calcium, FLIPR Calcium 6 fluorescence, at least three independent experiments, read-out: Half-maximum effective concentration (EC50); for Response in functional assay (words): HalhaPK-R2, Sf9 cells, concentration-response. The method, then:
as §1, §2, §3

Assay [7] deals with HalhaPK-R3b. The experiment in a line: Initial screening at 500 nM, Sf9 cells expressing HalhaPK-R3b. The settings on record: three independent experiments. On the procedure: as §1, with “Each transfected cell line was cultured in the presence of 20 μg/mL blasticidin for ∼3 weeks until a blasticidin-resistant cell line was established, after which the blasticidin concentration was reduced to 10 μg/mL and the cell lines were frozen prior to testing in functional assays.” left out
(§4) For each cell line expressing a specific H. halys PRXamide receptor, cells were thawed and cultured for at least three passages in a suspension culture containing blasticidin prior to functional assays. […] Plates were incubated at room temperature for 60 min then transferred to a FlexStation 3 Multi-Mode Microplate Reader (Molecular Devices) to measure cell fluorescence intensity from intracellular calcium influx after peptide-induced receptor activation. Wells of cells were then treated with 5 μL of water or 20X concentrations of each peptide using the automated injection system of the FlexStation plate reader. In all experiments, fluorescence was measured every 5 s for 30 s prior to treatment and for 2 min after exposure. […]

Assay [8] has as its system HalhaPK-R1b. The assay can be described thus: Initial screening at 500 nM, Sf9 cells expressing HalhaPK-R1b. The settings on record: three independent experiments. The method, then: as §1, with “Each transfected cell line was cultured in the presence of 20 μg/mL blasticidin for ∼3 weeks until a blasticidin-resistant cell line was established, after which the blasticidin concentration was reduced to 10 μg/mL and the cell lines were frozen prior to testing in functional assays.” left out
as §4

Assay [9] has as its system HalhaPK-R1a. The experiment in a line: Initial screening at 500 nM, Sf9 cells expressing HalhaPK-R1a. As to conditions: three independent experiments. The method, then:
as §1, with “Each transfected cell line was cultured in the presence of 20 μg/mL blasticidin for ∼3 weeks until a blasticidin-resistant cell line was established, after which the blasticidin concentration was reduced to 10 μg/mL and the cell lines were frozen prior to testing in functional assays.” left out
as §4

The test system of assay [10] is HalhaPK-R2. The experiment in a line: Initial screening at 500 nM, Sf9 cells expressing HalhaPK-R2. As to conditions: three independent experiments. On the procedure: as §1, with “Each transfected cell line was cultured in the presence of 20 μg/mL blasticidin for ∼3 weeks until a blasticidin-resistant cell line was established, after which the blasticidin concentration was reduced to 10 μg/mL and the cell lines were frozen prior to testing in functional assays.” left out
as §4

Assay [11] has as its system HalhaPK-R3a. The assay can be described thus: Initial screening at 500 nM, Sf9 cells expressing HalhaPK-R3a. As to conditions: three independent experiments. The method, then: as §1, with “Each transfected cell line was cultured in the presence of 20 μg/mL blasticidin for ∼3 weeks until a blasticidin-resistant cell line was established, after which the blasticidin concentration was reduced to 10 μg/mL and the cell lines were frozen prior to testing in functional assays.” left out
as §4

Entries after “also recorded” stand apart in the source; their conditions may differ. Where no end group is shown, it is not given here.

Regarding `CC(C)C[C@H](NC(=O)CNC(=O)[C@H](C)NC(=O)[C@@H](N)CC(=O)O)C(=O)N[C@@H](Cc1ccccc1)C(=O)N1CCC[C@H]1C(=O)N[C@@H](Cc1ccccc1)C(=O)N1CCC[C@H]1C(=O)N[C@@H](CCCNC(=N)N)C(=O)N[C@H](C(N)=O)C(C)C` [CAPA-PVK1], the EC50 in assay [1] is 80 nM; in assay [2], more than 1000 nM; in assay [3], more than 1000 nM; in [4] it was more than 1000 nM; in assay [5] it was more than 1000 nM; in [6], more than 1000 nM. For the same compound, the “Response in functional assay (words)” value in assay [1] is “responded specifically to PVK1 and PVK2 peptides; also recorded: concentration-dependent response to PVK1 and PVK2 (Figure 2), with similar sensitivity and degree of absolute magnitude”.
Consider `CC[C@H](C)[C@H](NC(=O)[C@H](CC(C)C)NC(=O)[C@H](CCC(N)=O)NC(=O)[C@@H](N)CCC(=O)O)C(=O)N1CCC[C@H]1C(=O)N[C@@H](Cc1ccccc1)C(=O)N1CCC[C@H]1C(=O)N[C@@H](CCCNC(=N)N)C(=O)N[C@H](C(N)=O)C(C)C` [CAPA-PVK2], for which the EC50 was 57 nM in assay [1]; more than 1000 nM in assay [2]; more than 1000 nM in [3]; more than 1000 nM in [4]; more than 1000 nM in assay [5]; more than 1000 nM in assay [6]. Further, in assay [1], the “Response in functional assay (words)” value was “responded specifically to PVK1 and PVK2 peptides; also recorded: concentration-dependent response to PVK1 and PVK2 (Figure 2), with similar sensitivity and degree of absolute magnitude”.
As to FYAPFSPRL-NH2 [PBAN/PK2], the EC50 was more than 1000 nM in [1]; more than 1000 nM in assay [2]; 199 nM in [3]; 142 nM in assay [4]; 420 nM in assay [5]; 35 nM in assay [6]. Also, the “Ligand-induced receptor activation (response in words)” value in [7] is “responded to PK2 and CAPA-DH peptides to varying degrees”; in assay [8], “responded to PK2 and CAPA-DH peptides to varying degrees”; in [9], “responded to PK2 and CAPA-DH peptides to varying degrees”; in [10], “responded to PK2 and CAPA-DH peptides to varying degrees”; in assay [11], “responded to PK2 and CAPA-DH peptides to varying degrees”. Moreover, the “Response in functional assay (words)” value was “positive concentration-dependent activity; also recorded: responded weakly” in [2] (HalhaPK-R1a, Sf9 cells, concentration-response); “positive concentration-dependent activity” in assay [3]; “positive concentration-dependent activity; also recorded: strongly responded to both PK1 and PK2 peptides” in [4]; “positive concentration-dependent activity; also recorded: responded weakly” in assay [5] (HalhaPK-R1b, Sf9 cells, concentration-response); “strongest response; also recorded: responded strongly; also recorded: positive concentration-dependent activity; also recorded: much more sensitive to PK2 than the PK1 peptide” in assay [6].
As to NGASGNGGLWFGPRL-NH2 [CAPA-DH/PK1], the EC50 is more than 1000 nM in [1]; more than 1000 nM in assay [2]; 660 nM in assay [3]; 91 nM in [4]; more than 1000 nM in assay [5]; 800 nM in assay [6]. In addition, the “Ligand-induced receptor activation (response in words)” value is “responded to PK2 and CAPA-DH peptides to varying degrees” in assay [7]; “responded to PK2 and CAPA-DH peptides to varying degrees” in assay [8]; “responded to PK2 and CAPA-DH peptides to varying degrees” in assay [9]; “responded to PK2 and CAPA-DH peptides to varying degrees” in [10]; “responded to PK2 and CAPA-DH peptides to varying degrees” in [11]. For the same compound, the “Response in functional assay (words)” value was “concentration-dependent responses” in [3]; “highest sensitivity to PK1 (= CAPA-DH), especially for HalhaPK-R3b; also recorded: concentration-dependent responses; also recorded: most sensitive to CAPA-DH among the six GPCRs” in assay [4] (listed as CAPA-DH); “strongest response to PK1; also recorded: strongly responded to both PK1 and PK2 peptides” in [4] (listed as PK1); “concentration-dependent responses” in assay [6] (listed as CAPA-DH); “moderate response” in assay [6] (listed as PK1).
